From patent US9931327B2, “Derivatives of 1-phenyl-2-pyridinyl alkyl alcohols as phosphodiesterase inhibitors” (Chiesi Farmaceutici S.p.A., priority 2011, dated 2018)
Structures can show the parent of a compound that is named as a salt.

System: LPS-induced TNF-α release in peripheral blood mononuclear cells (PBMCs)
Experiment: In vitro determination of PDE4 inhibitory activity in the PBMCs assay (LPS-induced TNF-α release)
Assay type: cell-based, human
Conditions: PBMC; human PBMCs, LPS 3 ng/ml, 18 hours, TNF-α by ELISA; read-out: PDE4 inhibition (IC50, 50% inhibition of LPS-induced TNF-α release)
Protocol: The assay, which is based on the known inhibitory activity exerted by PDE4 inhibitors on the lipopolyshaccarides (LPS)-induced tumour necrosis factor-alpha (TNF-α release in peripheral blood mononuclear cells (PBMCs), was performed according to a method previously described (Hatzelmann A et al., J. Pharmacol. Exp. Ther., 2001; 297:267-279; and Draheim R et al., J. Pharmacol. Exp. Ther., 2004; 308:555-563, which are incorporated herein by reference in their entireties). Cryopreserved human PBMCs, (100 l/well) were incubated in 96-well plates (10^5 cells/well), for 30 minutes, in the presence or absence (50 microl) of the test compounds whose concentrations ranged from 10^−12 M to 10^−6 M or from […] to 10^−7 M. Subsequently, LPS (3 ng/ml) was added.
After 18 hours of incubation at 37° C. in a humidified incubator under an atmosphere of 95% air and 5% CO2, culture medium was collected and TNF-α measured by ELISA. The results of the tested compounds, representatives of the invention, expressed as mean±95% confidence limits of the molar concentration of the test compound producing 50% inhibition of LPS-induced TNF-α release (IC50) are shown in the following Table: […]

| Compound | IC50 [nM] |
| --- | --- |
| O=C(O[C@@H](Cc1c(Cl)c[n+]([O-])cc1Cl)c1ccc(OC(F)F)c(OCC2CC2)c1)C1SCCN1C(=O)c1cncs1 (stereo partly drawn) [Compound 38, 3,5-dichloro-4-((2S)-2-(3-(cyclopropylmethoxy)-4-(difluoromethoxy)phenyl)-2-(3-(thiazole-5-carbonyl)thiazolidine-2-carbonyloxy)ethyl)pyridine 1-oxide] | < 0.1 |
| CN(C)C(=O)c1cccc(S(=O)(=O)N2CCCC[C@@H]2C(=O)O[C@@H](Cc2c(Cl)c[n+]([O-])cc2Cl)c2ccc(OC(F)F)c(OCC3CC3)c2)c1 [Compound 83, 3,5-dichloro-4-((S)-2-(3-(cyclopropylmethoxy)-4-(difluoromethoxy)phenyl)-2-((R)-1-(3-(dimethylcarbamoyl)phenylsulfonyl)piperidine-2-carbonyloxy)ethyl)pyridine 1-oxide] | < 0.1 |
| CN1CCOc2ccc(S(=O)(=O)N3CSC[C@H]3C(=O)O[C@@H](Cc3c(Cl)c[n+]([O-])cc3Cl)c3ccc(OC(F)F)c(OCC4CC4)c3)cc21 [Compound 252, 3,5-dichloro-4-((S)-2-(3-(cyclopropylmethoxy)-4-(difluoromethoxy)phenyl)-2-((R)-3-(4-methyl-3,4-dihydro-2H-benzo[b][1,4]oxazin-6-ylsulfonyl)thiazolidine-4-carbonyloxy)ethyl)pyridine 1-oxide] | < 0.1 |
| O=C(O[C@@H](Cc1c(Cl)c[n+]([O-])cc1Cl)c1ccc(OC(F)F)c(OCC2CC2)c1)[C@@H]1CCCCN1S(=O)(=O)c1cccnc1 [Compound 99, 3,5-dichloro-4-((S)-2-(3-(cyclopropylmethoxy)-4-(difluoromethoxy)phenyl)-2-((S)-1-(pyridin-3-ylsulfonyl)piperidine-2-carbonyloxy)ethyl)pyridine 1-oxide] | 1 to 10 |
| Nc1ccc(S(=O)(=O)N2CCSC2C(=O)O[C@@H](Cc2c(Cl)c[n+]([O-])cc2Cl)c2ccc(OC(F)F)c(OCC3CC3)c2)cc1 (stereo partly drawn) [Compound 135, 4-((2S)-2-(3-(4-aminophenylsulfonyl)thiazolidine-2-carbonyloxy)-2-(3-(cyclopropylmethoxy)-4-(difluoromethoxy)phenyl)ethyl)-3,5-dichloropyridine 1-oxide] | 0.1 to 1 |
| Cc1noc2ncc(S(=O)(=O)N3CCSC3C(=O)O[C@@H](Cc3c(Cl)c[n+]([O-])cc3Cl)c3ccc(OC(F)F)c(OCC4CC4)c3)cc12 (stereo in doubt) [Compound 239, 3,5-dichloro-4-((S)-2-(3-(cyclopropylmethoxy)-4-(difluoromethoxy)phenyl)-2-((S)-3-(3-methylisoxazolo[5,4-b]pyridin-5-ylsulfonyl)thiazolidine-2-carbonyloxy)ethyl)pyridine 1-oxide] | < 0.1 |
| O=C(O[C@@H](Cc1c(Cl)c[n+]([O-])cc1Cl)c1ccc(OC(F)F)c(OCC2CC2)c1)C1SCCN1S(=O)(=O)C1CCCCC1 (stereo partly drawn) [Compound 71, 3,5-dichloro-4-((2S)-2-(3-(cyclohexylsulfonyl)thiazolidine-2-carbonyloxy)-2-(3-(cyclopropylmethoxy)-4-(difluoromethoxy)phenyl)ethyl)pyridine 1-oxide] | 1 to 10 |
| O=C(O[C@@H](Cc1c(Cl)c[n+]([O-])cc1Cl)c1ccc(OC(F)F)c(OCC2CC2)c1)[C@@H]1SCCN1S(=O)(=O)c1ccco1 [Compound 95, 3,5-dichloro-4-((S)-2-(3-(cyclopropylmethoxy)-4-(difluoromethoxy)phenyl)-2-((S)-3-(furan-2-ylsulfonyl)thiazolidine-2-carbonyloxy)ethyl)pyridine 1-oxide] | < 0.1 |
| CNC(=O)c1cc(S(=O)(=O)N2CCS[C@H]2C(=O)O[C@@H](Cc2c(Cl)c[n+]([O-])cc2Cl)c2ccc(OC(F)F)c(OCC3CC3)c2)cn1C [Compound 241, 3,5-dichloro-4-((S)-2-(3-(cyclopropylmethoxy)-4-(difluoromethoxy)phenyl)-2-((S)-3-(1-methyl-5-(methylcarbamoyl)-1H-pyrrol-3-ylsulfonyl)thiazolidine-2-carbonyloxy)ethyl)pyridine 1-oxide] | < 0.1 |
| Nc1ccc(C(=O)N2CCSC2C(=O)O[C@@H](Cc2c(Cl)c[n+]([O-])cc2Cl)c2ccc(OC(F)F)c(OCC3CC3)c2)cc1 (stereo partly drawn) [Compound 26, 4-((2S)-2-(3-(4-aminobenzoyl)thiazolidine-2-carbonyloxy)-2-(3-(cyclopropylmethoxy)-4-(difluoromethoxy)phenyl)ethyl)-3,5-dichloropyridine 1-oxide] | 0.1 to 1 |
| NC(=O)c1ccc(C(=O)N2CCS[C@H]2C(=O)O[C@@H](Cc2c(Cl)c[n+]([O-])cc2Cl)c2ccc(OC(F)F)c(OCC3CC3)c2)cc1 [Compound 37, 4-((S)-2-((S)-3-(4-carbamoylbenzoyl)thiazolidine-2-carbonyloxy)-2-(3-(cyclopropylmethoxy)-4-(difluoromethoxy)phenyl)ethyl)-3,5-dichloropyridine 1-oxide] | < 0.1 |
| O=C(OCCN1CCOCC1)c1cccc(S(=O)(=O)N2CCSC2C(=O)O[C@@H](Cc2c(Cl)c[n+]([O-])cc2Cl)c2ccc(OC(F)F)c(OCC3CC3)c2)c1 (single isomer, unassigned) [Compound 133, 3,5-dichloro-4-((S)-2-(3-(cyclopropylmethoxy)-4-(difluoromethoxy)phenyl)-2-((S)-3-(3-((2-morpholinoethoxy)carbonyl)phenylsulfonyl)thiazolidine-2-carbonyloxy)ethyl)pyridine 1-oxide or 3,5-dichloro-4-((S)-2-(3-(cyclopropylmethoxy)-4-(difluoromethoxy)phenyl)-2-((R)-3-(3-((2-morpholinoethoxy)carbonyl)phenylsulfonyl)thiazolidine-2-carbonyloxy)ethyl)pyridine 1-oxide] | < 0.1 |
| CS(=O)(=O)Nc1cc(C(=O)N2CCC[C@H]2C(=O)O[C@@H](Cc2c(Cl)c[n+]([O-])cc2Cl)c2ccc(OC(F)F)c(OCC3CC3)c2)ccc1OCC1CC1 [Compound 19, 3,5-dichloro-4-((S)-2-((S)-1-(4-(cyclopropylmethoxy)-3-(methylsulfonamido)benzoyl)pyrrolidine-2-carbonyloxy)-2-(3-(cyclopropylmethoxy)-4-(difluoromethoxy)phenyl)ethyl)pyridine 1-oxide] | 1 to 10 |
| COc1ccc(S(=O)(=O)N2CCSC2C(=O)O[C@@H](Cc2c(Cl)c[n+]([O-])cc2Cl)c2ccc(OC(F)F)c(OCC3CC3)c2)cc1C(=O)N1CCOCC1 (stereo partly drawn) [Compound 128, 3,5-dichloro-4-((2S)-2-(3-(cyclopropylmethoxy)-4-(difluoromethoxy)phenyl)-2-(3-(4-methoxy-3-(morpholine-4-carbonyl)phenylsulfonyl)thiazolidine-2-carbonyloxy)ethyl)pyridine 1-oxide] | < 0.1 |
| CN(C)C(=O)c1cccc(S(=O)(=O)N2CC(C(=O)O[C@@H](Cc3c(Cl)c[n+]([O-])cc3Cl)c3ccc(OC(F)F)c(OCC4CC4)c3)C2)c1 [Compound 281, (S)-3,5-dichloro-4-(2-(3-(cyclopropylmethoxy)-4-(difluoromethoxy)phenyl)-2-(1-(3-(dimethylcarbamoyl)phenylsulfonyl)azetidine-3-carbonyloxy)ethyl)pyridine 1-oxide] | 0.1 to 1 |
| CS(=O)(=O)N(CCN1CCOCC1)c1cc(OCC2CC2)cc(C(=O)N2CCSC2C(=O)O[C@@H](Cc2c(Cl)c[n+]([O-])cc2Cl)c2ccc(OC(F)F)c(OCC3CC3)c2)c1 (stereo partly drawn) [Compound 49, 3,5-dichloro-4-((2S)-2-(3-(cyclopropylmethoxy)-4-(difluoromethoxy)phenyl)-2-(3-(3-(cyclopropylmethoxy)-5-(N-(2-morpholinoethyl)methylsulfonamido)benzoyl)thiazolidine-2-carbonyloxy)ethyl)pyridine 1-oxide formate] | 0.1 to 1 |
| O=C(CN1CCSC1C(=O)O[C@@H](Cc1c(Cl)c[n+]([O-])cc1Cl)c1ccc(OC(F)F)c(OCC2CC2)c1)c1cccs1 (stereo partly drawn) [Compound 144, 3,5-dichloro-4-((2S)-2-(3-(cyclopropylmethoxy)-4-(difluoromethoxy)phenyl)-2-(3-(2-oxo-2-(thiophen-2-yl)ethyl)thiazolidine-2-carbonyloxy)ethyl)pyridine 1-oxide] | 0.1 to 1 |
| CS(=O)(=O)Nc1ccc(S(=O)(=O)N2CCSC2C(=O)O[C@@H](Cc2c(Cl)c[n+]([O-])cc2Cl)c2ccc(OC(F)F)c(OCC3CC3)c2)cc1 (stereo partly drawn) [Compound 142, 3,5-dichloro-4-((2S)-2-(3-(cyclopropylmethoxy)-4-(difluoromethoxy)phenyl)-2-(3-(4-(methylsulfonamido)phenylsulfonyl)thiazolidine-2-carbonyloxy)ethyl)pyridine 1-oxide] | 0.1 to 1 |
| CN1CCN(C(=O)c2ccc(S(=O)(=O)N3CCSC3C(=O)O[C@@H](Cc3c(Cl)c[n+]([O-])cc3Cl)c3ccc(OC(F)F)c(OCC4CC4)c3)cc2)CC1 (stereo partly drawn) [Compound 126, 3,5-dichloro-4-((2S)-2-(3-(cyclopropylmethoxy)-4-(difluoromethoxy)phenyl)-2-(3-(4-(4-methylpiperazine-1-carbonyl)phenylsulfonyl)thiazolidine-2-carbonyloxy)ethyl)pyridine 1-oxide] | 0.1 to 1 |
